In ChEMBL document CHEMBL4308839, “Recent Progress in the Discovery of Allosteric Inhibitors of Kidney-Type Glutaminase” (J Med Chem, 2018):
Values belong to the compound of their own block, whether it stands above or below them.

What was measured:
[1] = target: T1, Glutaminase kidney isoform, mitochondrial (Homo sapiens, UniProt O94925); assay: Inhibition of GAC (unknown origin) assessed as NADH formation using 10 mM glutamine as substrate preincubated for 60 mins
T1 sequence (O94925 whole entry): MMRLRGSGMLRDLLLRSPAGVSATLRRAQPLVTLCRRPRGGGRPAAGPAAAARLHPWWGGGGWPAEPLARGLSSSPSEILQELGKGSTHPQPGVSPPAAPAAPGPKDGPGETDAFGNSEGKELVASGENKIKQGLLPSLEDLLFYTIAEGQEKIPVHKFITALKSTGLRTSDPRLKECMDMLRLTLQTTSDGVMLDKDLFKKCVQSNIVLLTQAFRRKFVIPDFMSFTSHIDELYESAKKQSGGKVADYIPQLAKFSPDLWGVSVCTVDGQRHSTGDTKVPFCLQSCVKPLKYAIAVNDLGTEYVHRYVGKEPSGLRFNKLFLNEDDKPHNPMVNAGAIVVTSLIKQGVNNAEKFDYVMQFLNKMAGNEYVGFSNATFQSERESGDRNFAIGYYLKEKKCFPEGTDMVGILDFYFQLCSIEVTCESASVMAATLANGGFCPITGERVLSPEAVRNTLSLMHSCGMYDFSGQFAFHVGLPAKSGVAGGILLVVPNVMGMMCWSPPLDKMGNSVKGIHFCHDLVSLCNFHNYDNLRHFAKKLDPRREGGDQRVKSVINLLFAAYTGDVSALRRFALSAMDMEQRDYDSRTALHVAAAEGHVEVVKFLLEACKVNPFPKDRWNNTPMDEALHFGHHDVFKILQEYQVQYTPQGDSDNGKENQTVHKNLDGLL

[2] = target: T1, Glutaminase kidney isoform, mitochondrial; assay: Inhibition of GAC (unknown origin) using 1 mM glutamine as substrate preincubated for 10 mins by resorufin dye based assay
[3] = target: T1, Glutaminase kidney isoform, mitochondrial; assay: Inhibition of GAC (unknown origin) assessed as NADH formation using 1.8 to 13 mM glutamine as substrate preincubated for 60 mins by resorufin dye based assay
[4] = target: T1, Glutaminase kidney isoform, mitochondrial; assay: Inhibition of kidney-type glutaminase in human BT20 cells assessed as reduction in glutamate level; assay type: cell-based
[5] = (§1) Inhibition of mouse brain glutaminase assessed as ammonia formation at 0.1 uM using glutamine as substrate by Nessler's reagent based assay relative to control
[6] = target: T2, Glutaminase kidney isoform, mitochondrial (Mus musculus, UniProt D3Z7P3); assay: (§2) Inhibition of mouse kidney glutaminase assessed as ammonia formation at 0.1 uM using glutamine as substrate by Nessler's reagent based assay relative to control
T2 sequence (D3Z7P3 whole entry): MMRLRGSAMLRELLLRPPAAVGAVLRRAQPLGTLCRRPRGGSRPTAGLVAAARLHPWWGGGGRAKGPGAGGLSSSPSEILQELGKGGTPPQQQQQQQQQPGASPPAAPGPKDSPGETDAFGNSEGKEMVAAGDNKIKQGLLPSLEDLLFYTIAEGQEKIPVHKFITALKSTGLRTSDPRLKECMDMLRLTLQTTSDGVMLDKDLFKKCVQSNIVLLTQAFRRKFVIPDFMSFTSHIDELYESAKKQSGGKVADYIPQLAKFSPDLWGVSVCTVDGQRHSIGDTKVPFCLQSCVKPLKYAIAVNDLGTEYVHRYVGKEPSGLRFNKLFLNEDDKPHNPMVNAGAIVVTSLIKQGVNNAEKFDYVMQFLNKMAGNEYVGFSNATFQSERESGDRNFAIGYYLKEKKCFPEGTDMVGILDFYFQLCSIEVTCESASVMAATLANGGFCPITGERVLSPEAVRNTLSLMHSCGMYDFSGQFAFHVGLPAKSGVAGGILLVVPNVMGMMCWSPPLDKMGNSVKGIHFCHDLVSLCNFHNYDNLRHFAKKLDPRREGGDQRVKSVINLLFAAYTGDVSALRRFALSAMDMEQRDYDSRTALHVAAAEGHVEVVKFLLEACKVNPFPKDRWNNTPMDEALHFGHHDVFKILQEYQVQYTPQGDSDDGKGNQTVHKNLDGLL

[7] = target: T1, Glutaminase kidney isoform, mitochondrial; assay: Inhibition of human KGA (63 to 669 residues) preincubated for 15 mins using 50 mM glutamine as substrate by resorufin dye based assay
[8] = target: T2, Glutaminase kidney isoform, mitochondrial; assay: Inhibition of mouse kidney glutaminase assessed as ammonia formation using glutamine as substrate by Nessler's reagent based assay
[9] = Inhibition of mouse brain glutaminase assessed as ammonia formation using glutamine as substrate by Nessler's reagent based assay
[10] = target: T1, Glutaminase kidney isoform, mitochondrial; assay: Inhibition of human KGA (1 to 669 residues) preincubated for 20 mins using 7 mM glutamine as substrate
Mus musculus = organism: Mus musculus; assay: as §1
[11] = target: T3, Glutaminase kidney isoform, mitochondrial (Mus musculus) (UniProt D3Z7P3); assay: as §2
T3 sequence (whole entry): T2 sequence (D3Z7P3 whole entry)

SMILES: O=C(Cc1ccccc1)Nc1ccc(CCCCc2ccc(NC(=O)Cc3ccccc3)nn2)nn1
IC50 [1]: 10 nM

SMILES: CN(C)c1ccc(CC(=O)Nc2nnc(CCCCc3nnc(NC(=O)Cc4ccc(N(C)C)cc4)s3)s2)cc1
IC50 [1]: 240 nM

SMILES: O=C(Cc1ccccc1)Nc1ccn(CCC(F)Cn2cc(C(=O)NCc3cccc(OC(F)(F)F)c3)nn2)c(=O)c1 (centres undefined)
IC50 [2]: ≤ 100 nM

SMILES: O=C(NCc1ccccn1)c1cn(CCCCc2nnc(C(=O)NCc3cccc(OC(F)(F)F)c3)s2)nn1
IC50 [2]: < 100 nM

SMILES: O=C(Cc1ccccc1)Nc1ccn(CCCCc2nnc(NC(=O)Cc3ccccc3)s2)c(=O)c1
IC50 [2]: ≤ 100 nM

SMILES: Cn1ccc(CC(=O)Nc2nnc([C@H]3C[C@]4(C[C@H](c5nnc(NC(=O)Cc6ccn(C)n6)s5)C4)C3)s2)n1 (some centres undefined)
IC50 [4]: 0.5 nM

SMILES: O=C(Cc1ccccn1)Nc1nnc(C[C@@H]2C[C@H]2Cc2nnc(NC(=O)Cc3ccccn3)s2)s1 (racemic)
IC50 [3]: 500 to 1000 nM

SMILES: O=C(Cc1ccccc1)Nc1ccn(CCCCc2nnc(NC(=O)Cc3ccccc3)s2)c(=O)n1
IC50 [2]: ≤ 100 nM

SMILES: CC(=O)Nc1ccc([C@H]2CCC[C@H](c3ccc(NC(C)=O)nn3)C2)nn1
IC50 [3]: 2000 to 10000 nM

SMILES: O=C(Cc1ccccc1)Nc1ccc(CCCCn2ccc(NC(=O)Cc3ccccc3)nc2=O)nn1
IC50 [2]: ≤ 100 nM

SMILES: O=C(Nc1nnc(N[C@@H]2CCN(c3cccnn3)C2)s1)[C@@H](c1cccc(OC(F)(F)F)c1)N1CCC1
IC50 [7]: 100 nM

SMILES: O=C(Cc1ccccc1)Nc1ccn(CCCCn2cc(C(=O)NCc3cccc(OC(F)(F)F)c3)nn2)c(=O)c1
IC50 [2]: ≤ 100 nM

SMILES: O=C(Cc1ccccn1)Nc1nnc(CC2CCC(Cc3nnc(NC(=O)Cc4ccccn4)s3)C2)s1 (centres undefined)
IC50 [3]: 2000 to 10000 nM

SMILES: CC(=O)Nc1ccc([C@@H]2CCC[C@H](c3ccc(NC(C)=O)nn3)C2)nn1
IC50 [3]: < 100 nM

SMILES: O=C(Cc1ccccc1)Nc1nnc(CCCCc2cc3cc(Cc4ccccc4)[nH]c3nn2)s1
IC50 [2]: ≤ 100 nM

SMILES: O=C(Nc1nnc(CCOCCc2nnc(NC(=O)c3ccccc3)s2)s1)c1ccccc1
IC50 [10]: 10200 nM

SMILES: O=C(Cc1c[nH]c2ccccc12)Nc1nnc(CCCCc2nnc(NC(=O)Cc3c[nH]c4ccccc34)s2)s1
IC50 [3]: < 100 nM

SMILES: CO[C@H](C(=O)Nc1ccc(N2CC[C@@H](Nc3cccnn3)C2)nn1)c1cccc(OC(F)F)c1
IC50 [7]: 25 nM

SMILES: Cc1ccc(CNC(=O)c2cn(CCCCc3cc4cc(-c5ccccc5F)[nH]c4nn3)nn2)cn1
IC50 [2]: ≤ 100 nM

SMILES: CO[C@H](C(=O)Nc1nnc(N[C@@H]2CCN(c3cc(Cl)cnn3)C2)s1)c1ccccc1
IC50 [7]: 40 nM

SMILES: Cn1ccc(CC(=O)Nc2nnc([C@H]3C[C@@]4(C[C@H](c5nnc(NC(=O)Cc6ccn(C)n6)s5)C4)C3)s2)n1 (some centres undefined)
IC50 [4]: 2.7 nM

SMILES: O=C(Cc1ccccn1)Nc1nnc(CC2CC(Cc3nnc(NC(=O)Cc4ccccn4)s3)C2)s1 (centres undefined)
IC50 [3]: 2000 to 10000 nM

SMILES: O=C(CCCC(=O)c1ccccc1)Nc1nnc(CCCCc2nnc(NC(=O)CCCC(=O)c3ccccc3)s2)s1
IC50 [3]: < 100 nM

SMILES: O=C(NCc1ccccc1)c1cn(CCCCc2cc3cc(Cc4ccccc4)[nH]c3nn2)nn1
IC50 [2]: ≤ 100 nM

SMILES: O=C(Cc1ccccc1)Nc1ccn(CCCCc2cc3cc(Cc4ccccc4)[nH]c3nn2)c(=O)c1
IC50 [2]: ≤ 100 nM

SMILES: O=C(Cc1ccccc1)Nc1ccn(CC(F)CCn2cc(C(=O)NCc3cccc(OC(F)(F)F)c3)nn2)c(=O)c1 (centres undefined)
IC50 [2]: ≤ 100 nM

SMILES: O=C(Cc1ccccc1)Nc1ccc(CCCCc2nnc(NC(=O)Cc3ccccc3)s2)nn1
IC50 [1]: 80 nM

Continued, values first:

IC50 [3]: 1000 to 2000 nM
SMILES: O=C(Cc1ccccn1)Nc1nnc([C@@H]2CCC[C@H](c3nnc(NC(=O)Cc4ccccn4)s3)C2)s1

IC50 [3]: 500 to 1000 nM
SMILES: O=C(Cc1ccccn1)Nc1nnc(C[C@H]2CC[C@H](Cc3nnc(NC(=O)Cc4ccccn4)s3)CC2)s1

IC50 [5]: < 50 nM
IC50 [6]: < 50 nM
SMILES: O=C(Cc1ccccn1)Nc1ccc(N2CCC(c3nnc(NC(=O)Cc4cccc(OC(F)(F)F)c4)s3)CC2)nn1

IC50 [3]: 1000 to 2000 nM
SMILES: O=C(Cc1ccccn1)Nc1nnc([C@@H]2CCC[C@@H](c3nnc(NC(=O)Cc4ccccn4)s3)C2)s1

IC50 [3]: 1000 to 2000 nM
SMILES: O=C(Cc1ccccn1)Nc1nnc(C2CCCCC(c3nnc(NC(=O)Cc4ccccn4)s3)C2)s1 (centres undefined)

IC50 [4]: 0.2 nM
SMILES: O=C(Cc1cccc(OC(F)(F)F)c1)Nc1ccc(C[C@H]2C[C@@H](c3nnc(NC(=O)Cc4ccccn4)s3)C2)nn1

IC50 [8]: 50 to 100 nM
IC50 [9]: 50 to 100 nM
SMILES: O=C(Cc1cccc(OC(F)(F)F)c1)Nc1ccc(CCCCc2nnc(NC(=O)Cc3ccccn3)s2)cn1

IC50 [3]: < 100 nM
SMILES: O=C(Cc1ccccn1)Nc1ccc([C@@H]2CCC[C@H](c3ccc(NC(=O)Cc4ccccn4)nn3)C2)nn1

IC50 [2]: ≤ 100 nM
SMILES: O=C(Cc1cccc(OC(F)(F)F)c1)Nc1ccc(N2CCC(c3nnc(NC(=O)Cc4ccccn4)s3)C2)nn1 (centres undefined)

IC50 [3]: < 100 nM
SMILES: O=C(Cc1ccccn1)Nc1ccc([C@H]2CCC[C@H](c3ccc(NC(=O)Cc4ccccn4)nn3)C2)nn1

IC50 [2]: ≤ 100 nM
SMILES: O=C(Cc1cccc(OC(F)(F)F)c1)Nc1ccc(C2CCN(c3nnc(NC(=O)Cc4ccccn4)s3)C2)nn1 (centres undefined)

IC50 [3]: < 100 nM
SMILES: O=C(Cc1ccccc1)Nc1nnc([C@H]2CCC[C@H](c3nnc(NC(=O)Cc4ccccc4)s3)C2)s1

IC50 [3]: < 100 nM
SMILES: O=C(Cc1ccccn1)Nc1nnc([C@@H]2CC[C@@H](c3nnc(NC(=O)Cc4ccccn4)s3)C2)s1

IC50 [2]: 100 to 500 nM
SMILES: O=C(Cc1ccccn1)Nc1ccc([C@H]2CCN(c3nnc(C(=O)NCc4cc(C(F)(F)F)ccn4)s3)C2)nn1

IC50 [5]: < 25 nM
IC50 [6]: < 25 nM
SMILES: O=C(Cc1cccc(OC(F)(F)F)c1)Nc1ccc(CC2CC(c3nnc(NC(=O)Cc4ccccn4)s3)C2)nn1 (centres undefined)

IC50 [2]: < 100 nM
SMILES: O=C(Cc1cccc(OC(F)(F)F)c1)Nc1ccc(CCCCc2nnc(C(=O)NCc3ccccn3)s2)nn1

IC50 [2]: ≤ 100 nM
SMILES: O=C(Cc1ccccn1)Nc1ccc([C@@H]2CCN(c3nnc(C(=O)NCc4cc(C(F)(F)F)ccn4)s3)C2)nn1

IC50 [5]: 50 to 200 nM
IC50 [6]: 50 to 200 nM
SMILES: O=C(Cc1cccc(OC(F)(F)F)c1)Nc1ccc(N2CCCC(c3nnc(NC(=O)Cc4ccccn4)s3)C2)nn1 (centres undefined)

inhibition (Mus musculus): < 25%
inhibition [11]: < 25%
SMILES: O=C(Cc1cccc(OC(F)(F)F)c1)Nc1cnc(CCCCc2nnc(NC(=O)Cc3ccccn3)s2)cn1

IC50 [5]: < 50 nM
IC50 [6]: < 50 nM
SMILES: O=C(Cc1cccc(OC(F)(F)F)c1)Nc1ccc(N2CCC(c3nnc(NC(=O)Cc4ccccn4)s3)CC2)nn1

IC50 [5]: 1000 to 2000 nM
IC50 [6]: 1000 to 2000 nM
SMILES: O=C(Cc1cccc(OC(F)(F)F)c1)Nc1ccc(N2CCC(c3nnc(NC(=O)Cc4ccccn4)s3)CC2)cn1

IC50 [4]: 0.1 nM
SMILES: O=C(Cc1cccc(OC(F)(F)F)c1)Nc1ccc(C[C@@H]2CC[C@H](c3nnc(NC(=O)Cc4ccccn4)s3)C2)nn1

IC50 [3]: < 100 nM
SMILES: O=C(Cc1ccccn1)Nc1nnc([C@H]2CC[C@H](c3nnc(NC(=O)Cc4ccccn4)s3)C2)s1

IC50 [3]: < 100 nM
SMILES: O=C(Cc1ccccn1)Nc1nnc([C@H]2CCC[C@H](c3nnc(NC(=O)Cc4ccccn4)s3)C2)s1

IC50 [3]: 500 to 1000 nM
SMILES: O=C(Cc1ccccn1)Nc1nnc([C@@H]2CC[C@H](c3nnc(NC(=O)Cc4ccccn4)s3)C2)s1
